In publication PMC6123649, “Structural basis for specific inhibition of the highly sensitive ShHTL7 receptor” (EMBO Reports, 2018):
“Also recorded” adds a separate entry of the source. Where two headings read alike, the source gives them in different places.

What was measured:
AtD14 [1] = target: T1, AtD14 (Arabidopsis thaliana, UniProt Q9SQR3); test: Intrinsic Triton fluorescence binding assay; details: up to 5 μM of AtD14
T1 construct: made in house; host or cells: E. coli BL21 (DE3)
T1 sequence (Q9SQR3 1-267): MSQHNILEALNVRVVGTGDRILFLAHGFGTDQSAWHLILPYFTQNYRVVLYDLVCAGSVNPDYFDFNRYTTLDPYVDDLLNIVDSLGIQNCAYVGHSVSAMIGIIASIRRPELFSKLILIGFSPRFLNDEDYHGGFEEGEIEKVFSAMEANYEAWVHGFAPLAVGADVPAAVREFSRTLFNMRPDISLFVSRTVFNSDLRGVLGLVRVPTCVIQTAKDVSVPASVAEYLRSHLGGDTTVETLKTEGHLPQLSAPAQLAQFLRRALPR
Description: (§1) Triton X‐100 has an excitation and emission wavelength of 275 and 302 nm, respectively. ShHTL7, ShHTL7‐L143Y, AtD14, and OsD14 were incubated in 50 mM Tris–HCl pH 7.5, 150 mM NaCl, with or without 0.005% Tween‐20, at concentrations ranging from 10 μM to 1 nM (obtained using serial dilutions) with 154 nM of Triton X‐100 for 1–2 h, and fluorescence values were then measured by SpectraMax i3 (Molecular Devices) at excitation and detection wavelengths of 275 and 302 nm, respectively. […] Data were normalized to the background fluorescence from the protein to obtain the change in Triton X‐100 fluorescence intensity. To determine the K d, the changes in Triton X‐100 fluorescence intensity were plotted against the concentration of the protein using the single binding site model implemented in GraphPad (Prism 6).

OsD14 = target: T2, OsD14 (Oryza sativa subsp. japonica, UniProt Q10QA5); test: Intrinsic Triton fluorescence binding assay; details: up to 5 μM of OsD14
T2 construct: made in house; host or cells: E. coli BL21 (DE3)
T2 sequence (Q10QA5 1-318): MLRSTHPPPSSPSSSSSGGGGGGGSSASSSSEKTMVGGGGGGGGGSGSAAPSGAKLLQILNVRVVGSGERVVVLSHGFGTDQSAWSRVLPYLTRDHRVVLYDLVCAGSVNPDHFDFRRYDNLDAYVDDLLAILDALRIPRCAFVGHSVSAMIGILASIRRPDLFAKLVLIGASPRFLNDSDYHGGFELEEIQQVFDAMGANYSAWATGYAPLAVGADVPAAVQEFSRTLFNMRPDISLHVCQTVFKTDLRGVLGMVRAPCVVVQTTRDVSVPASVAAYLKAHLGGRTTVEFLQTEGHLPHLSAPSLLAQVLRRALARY
Description: as §1

ShHTL7 [2] = target: T3, ShHTL7 (Striga hermonthica, UniProt A0A0M3PNA2); test: Intrinsic Triton fluorescence binding assay
T3 sequence (A0A0M3PNA2 1-271): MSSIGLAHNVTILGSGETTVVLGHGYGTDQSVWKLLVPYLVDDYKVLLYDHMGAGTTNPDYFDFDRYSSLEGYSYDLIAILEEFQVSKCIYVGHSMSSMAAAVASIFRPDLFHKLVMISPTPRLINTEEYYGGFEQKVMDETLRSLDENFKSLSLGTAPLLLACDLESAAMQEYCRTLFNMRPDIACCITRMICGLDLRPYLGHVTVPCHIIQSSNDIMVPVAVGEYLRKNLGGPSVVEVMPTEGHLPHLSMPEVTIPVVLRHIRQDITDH
Description: as §1

ShHTL7 L143Y mutant = test: Intrinsic Triton fluorescence binding assay; design: species or system Striga hermonthica
Description: as §1

ShHTL7 [3] = target: T3, ShHTL7; test: Differential static light scattering (DSLS), aggregation temperature; format: binding
Description: (§2) The specific aggregation temperature, T agg, at which ShHTL7, ShHTL7L143Y, AtD14, and OsD14 aggregated in the presence or absence of Triton X‐100, GR24, and PAA was measured using DSLS on the Stargazer system (Harbinger Biotechnology and Engineering Corporation, Markham, Canada). Protein samples at a concentration of 10 μM were overlaid with mineral oil in a clear bottom 384‐well black plate (Corning) and heated from 20 to 95°C at 1°C/min; light scattering was detected by a CCD camera every 0.5°C in the presence or absence of varying concentrations of Triton X‐100, GR24, and PAA yielding the difference in aggregation temperature at a particular concentration from apoproteins (ΔT agg). Data were normalized, and ΔT agg plotted against the Triton X‐100, GR24, and PAA concentration. Resulting data were plotted to determine the change in T agg of all proteins when bound to Triton X‐100, GR24, and PAA using GraphPad (Prism 6).

AtD14 [4] = target: T1, AtD14; test: DSLS, aggregation temperature; format: binding; details: up to 100 μM of Triton
Description: as §2

Triton X-100
change of Triton fluorescence in presence of protein (AtD14 [1]): did not change | change of Triton fluorescence in presence of protein (OsD14): did not change | Kd for the Triton-ShHTL7 association (ShHTL7 [2]; across methods and buffers (authors' reply in peer review file)): ~ 250 nM | Kd (ShHTL7 [2]; in the absence of Tween‐20, read-out: final Kd, intrinsic Triton fluorescence): 233 ± 30 nM | Kd (ShHTL7 [2]; wild-type ShHTL7, buffer with 0.005% Tween‐20, converged after 2.5 h of incubation, read-out: dissociation constant (Kd), intrinsic Triton fluorescence): 284 ± 22 nM | binding to ShHTL7 L143Y mutant in vitro (ShHTL7 L143Y mutant): failed to bind | effect on ShHTL7 aggregation temperature (T agg) (ShHTL7 [3]; 10 μM protein, varying compound concentrations): increases; also recorded: stabilized | effect of Triton pre‐incubation on GR24-induced T agg changes in ShHTL7 (ShHTL7 [3]; pre‐incubation with Triton, then GR24): efficiently blocked | effect on T agg (AtD14 [4]): failed to affect
